Source: PubChem BioAssay AID1918956 (Molecular Pharmacology Branch, DTP, NCI, 2023)

System: OVCAR-5 complex spheroids, viability
Assay: Anticancer human tumor OVCAR-5 cell line growth inhibition;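 note: spheroids exposed to agents for seven days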;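 for viability, T/C: 100% = DMSO vehicle control wells viability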
Settings: for IC50: curve of first compound; for viability, T/C: stronger effect = lower value
In short: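 Multicellular complex spheroids of tumor cells with human endothelial cells (HUVEC) and mesenchymal stem cells; the LSD1 inhibitor iadademstat was combined with standard-of-care or investigational agents. Top concentration at or near clinical Cmax, half-log dilutions; final DMSO ≤0.25%.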

[1] = second compound 0.1 µM, first compound 0.0316 µM
[2] = second compound 0.1 µM, first compound 0.1 µM
[3] = second compound 0.1 µM, first compound 0.316 µM
[4] = second compound 0.1 µM, first compound 1 µM
[5] = second compound 0.1 µM, first compound 3.16 µM
[6] = second compound 0.1 µM, first compound 10 µM
[7] = second compound 0.316 µM, first compound 0.0316 µM
[8] = second compound 0.316 µM, first compound 0.1 µM
[9] = second compound 0.316 µM, first compound 0.316 µM
[10] = second compound 0.316 µM, first compound 1 µM
[11] = second compound 0.316 µM, first compound 3.16 µM
[12] = second compound 0.316 µM, first compound 10 µM
[13] = second compound 1 µM, first compound 0.0316 µM
[14] = second compound 1 µM, first compound 0.1 µM
[15] = second compound 1 µM, first compound 0.316 µM
[16] = second compound 1 µM, first compound 1 µM
[17] = second compound 1 µM, first compound 3.16 µM
[18] = second compound 1 µM, first compound 10 µM
[19] = second compound 3.16 µM, first compound 0.0316 µM
[20] = second compound 3.16 µM, first compound 0.1 µM
[21] = second compound 3.16 µM, first compound 0.316 µM
[22] = second compound 3.16 µM, first compound 1 µM
[23] = second compound 3.16 µM, first compound 3.16 µM
[24] = second compound 3.16 µM, first compound 10 µM
[25] = second compound 10 µM, first compound 0.0316 µM
[26] = second compound 10 µM, first compound 0.1 µM
[27] = second compound 10 µM, first compound 0.316 µM
[28] = second compound 10 µM, first compound 1 µM
[29] = second compound 10 µM, first compound 3.16 µM
[30] = second compound 10 µM, first compound 10 µM

Structure (SMILES) | IC50 (second compound 0.1 µM) [nM] | IC50 (second compound 0.316 µM) [nM] | IC50 (second compound 1 µM) [nM] | IC50 (second compound 3.16 µM) [nM] | IC50 (second compound 10 µM) [nM] | viability, T/C [1] [%] | viability, T/C [2] [%] | viability, T/C [3] [%] | viability, T/C [4] [%] | viability, T/C [7] [%] | viability, T/C [8] [%] | viability, T/C [9] [%] | viability, T/C [10] [%] | viability, T/C [13] [%] | viability, T/C [14] [%] | viability, T/C [15] [%] | viability, T/C [16] [%] | viability, T/C [19] [%] | viability, T/C [20] [%] | viability, T/C [21] [%] | also measured
CC(C)c1c(-c2ccccc2)nc2c(C#N)c[nH]n2c1=O + NC1CCC(NC2CC2c2ccccc2)CC1 | > 10000 | > 10000 | > 10000 | > 10000 | > 10000 | 114 | 124 | 108 | 130 | 119 | 122 | 114 | 104 | 110 | 105 | 111 | 113 | 92.9 | 102 | 108 | viability, T/C [5]: 113%; viability, T/C [6]: 117%; viability, T/C [11]: 118%; viability, T/C [12]: 121%; viability, T/C [17]: 115%; viability, T/C [18]: 106%; viability, T/C [22]: 101%; viability, T/C [23]: 89.3%; viability, T/C [24]: 93.5%; viability, T/C [25]: 88.5%; viability, T/C [26]: 81.5%; viability, T/C [27]: 77.4%; viability, T/C [28]: 79.9%; viability, T/C [29]: 82.7%; viability, T/C [30]: 79.3%
CC1COCCN1c1cc(-c2ccnn2C)c2ccnc(-c3ccn[nH]3)c2n1 (stereo not given) + NC1CCC(NC2CC2c2ccccc2)CC1 | 61.8 | 61.9 | 81.4 | 71.1 | 47.7 | 60.4 | 41.7 | 37.2 | 31.6 | 61.2 | 41 | 37.4 | 32 | 65.2 | 46.2 | 39.4 | 34.7 | 60.1 | 46.8 | 40.7 | viability, T/C (second compound 0.1 µM, first compound 0.00316 µM): 111%; viability, T/C (second compound 0.1 µM, first compound 0.01 µM): 86.9%; viability, T/C (second compound 0.316 µM, first compound 0.00316 µM): 110%; viability, T/C (second compound 0.316 µM, first compound 0.01 µM): 87.7%; viability, T/C (second compound 1 µM, first compound 0.00316 µM): 104%; viability, T/C (second compound 1 µM, first compound 0.01 µM): 88.8%; viability, T/C (second compound 3.16 µM, first compound 0.00316 µM): 83.8%; viability, T/C (second compound 3.16 µM, first compound 0.01 µM): 83.4%; viability, T/C [22]: 35.8%; viability, T/C (second compound 10 µM, first compound 0.00316 µM): 79.1%; viability, T/C (second compound 10 µM, first compound 0.01 µM): 65.9%; viability, T/C [25]: 55%; viability, T/C [26]: 41.9%; viability, T/C [27]: 37.8%; viability, T/C [28]: 33.3%
COc1ccc([C@@H](O)c2cc(-c3ncnc4cc(N5CCOCC5)ccc34)c(F)cc2Cl)nn1 + NC1CCC(NC2CC2c2ccccc2)CC1 | 1910 | 1360 | 1920 | 1610 | 992 | 88.3 | 91.5 | 79 | 56 | 99.3 | 93.1 | 69.6 | 54.5 | 88.2 | 80.2 | 66.4 | 60.9 | 93.3 | 83.2 | 69.3 | viability, T/C [5]: 46%; viability, T/C [6]: 26.1%; viability, T/C [11]: 40%; viability, T/C [12]: 26%; viability, T/C [17]: 44.2%; viability, T/C [18]: 28%; viability, T/C [22]: 57.5%; viability, T/C [23]: 40.5%; viability, T/C [24]: 26.1%; viability, T/C [25]: 82.5%; viability, T/C [26]: 83%; viability, T/C [27]: 63%; viability, T/C [28]: 50.8%; viability, T/C [29]: 35.8%; viability, T/C [30]: 25.6%
